Series [1] deals with Staphylococcus aureus. Put plainly: Antibacterial activity against methicillin-resistant Staphylococcus aureus NCTC10442 assessed as reduction in bacterial growth after 24 hrs by CLSI based broth micro dilution method. The format is functional.
The subject of another series is Escherichia coli. Nature of the series: Antibacterial activity against Escherichia coli ATCC 25922 assessed as reduction in bacterial growth after 24 hrs by CLSI based broth micro dilution method. In kind it is functional.
Series [2] can be described thus: Hemolytic activity in rabbit RBC after 60 mins. In kind it is ADME, cell-based, Oryctolagus cuniculus, Erythrocyte. The conditions noted are these: rabbit red blood cells (erythrocytes).
Series [3] has as its system Staphylococcus aureus. Nature of the series: Antibacterial activity against Staphylococcus aureus ATCC 29213 assessed as reduction in bacterial growth after 24 hrs by CLSI based broth micro dilution method. In kind it is functional.
The test system of series [4] is Staphylococcus aureus. Put plainly: Antibacterial activity against methicillin-resistant Staphylococcus aureus N315 assessed as reduction in bacterial growth after 24 hrs by CLSI based broth micro dilution method. In kind it is functional.
Series [5] relates to Staphylococcus aureus. Nature of the series: Bactericidal activity against Staphylococcus aureus ATCC 29213 assessed as reduction in bacterial load at MIC concentration preincubated for 240 mins followed by compound washout further subculturing and measured after 24 hrs by time-kill assay. In kind it is functional. The conditions noted are these: 4 h.
For series [6], the system named is Staphylococcus aureus. Nature of the series: Bactericidal activity against Staphylococcus aureus ATCC 29213 assessed as reduction in bacterial load at 2 time of MIC concentration preincubated for 240 mins followed by compound washout further subculturing and measured after 24 hrs by time-kill assay. The conditions noted are these: 4 h. The format is functional.

Series [7] relates to Staphylococcus aureus. Nature of the series: Antibacterial activity against Staphylococcus aureus ATCC 29213 infected in C57BL6 mouse assessed as reduction in bacterial load at 33.65 mmol/L, administered topically at 2 hrs interval for 3 days. The format is functional. The conditions noted are these: time 3 day.

In brackets after ≈: the same amount, converted by molar mass.

The term MIC denotes the smallest concentration in the dilution series that meets the test's criterion for growth inhibition. For orientation: HC50 means the concentration that lyses half of the red blood cells. Lower therefore signals stronger haemolysis.

In the case of `CCN(CC)CCCNC(=O)COc1cc(OCC=C(C)C)ccc1C(=O)/C=C/c1ccc(OCC=C(C)C)cc1`, the minimum inhibitory concentration (MIC) in the series with Staphylococcus aureus [1] was 6.25 µg/mL (≈ 11.1 µM); in the series with Escherichia coli, more than 50 µg/mL; in the series on Staphylococcus aureus [3], 6.25 µg/mL (≈ 11.1 µM). The 50% haemolytic concentration (HC50) at 1 h in series [2] came out at 65.7 µg/mL.

In the case of `CC(C)=CCOc1ccc(/C=C/C(=O)c2ccc(OCC=C(C)C)cc2OCC(=O)N[C@@H](CCCNC(=N)N)C(N)=O)cc1`, the minimum inhibitory concentration (MIC) is 3.13 µg/mL (≈ 5.17 µM) with Staphylococcus aureus [1], 12.5 µg/mL (≈ 20.6 µM) in the series with Escherichia coli, 1.56 µg/mL (≈ 2.58 µM) in the series with Staphylococcus aureus [4] and 3.13 µg/mL (≈ 5.17 µM) in the series with Staphylococcus aureus [3]. The compound further had an HC50 at 1 h in series [2] of 78.7 µg/mL.

Regarding `CN[C@H](CC(C)C)C(=O)N[C@H]1C(=O)N[C@@H](CC(N)=O)C(=O)N[C@H]2C(=O)N[C@H]3C(=O)N[C@H](C(=O)N[C@H](C(=O)O)c4cc(O)cc(O)c4-c4cc3ccc4O)[C@H](O)c3ccc(c(Cl)c3)Oc3cc2cc(c3O[C@@H]2O[C@H](CO)[C@@H](O)[C@H](O)[C@H]2O[C@H]2C[C@](C)(N)[C@H](O)[C@H](C)O2)Oc2ccc(cc2Cl)[C@H]1O` [VANCOMYCIN], the MIC worked out at 1.56 µg/mL (≈ 1.08 µM) in the series with Staphylococcus aureus [1], 1.56 µg/mL (≈ 1.08 µM) with Staphylococcus aureus [4] and 0.78 µg/mL (≈ 0.538 µM) in the series on Staphylococcus aureus [3]. Moreover, the “log(activity)” value in the series with Staphylococcus aureus [5] is 1.1; in the series with Staphylococcus aureus [6], 1.1; in the series with Staphylococcus aureus [7] it was 4.16.

As to `COC(=O)[C@H](CCCNC(=N)N)NC(=O)COc1cc(OCC=C(C)C)ccc1C(=O)/C=C/c1ccc(OCC=C(C)C)cc1`, the MIC in the series with Staphylococcus aureus [1] came to 1.56 µg/mL (≈ 2.51 µM); in the series on Escherichia coli it was 50 µg/mL (≈ 80.5 µM); in the series on Staphylococcus aureus [4] it was 1.56 µg/mL (≈ 2.51 µM); with Staphylococcus aureus [3] it was 1.56 µg/mL (≈ 2.51 µM). Also, in series [2], the 50% haemolytic concentration (HC50) at 1 h amounted to 70 µg/mL.

Consider `CC(C)=CCOc1ccc(/C=C/C(=O)c2ccc(OCC=C(C)C)cc2OCC(=O)NCCCNC(=N)N)cc1`, for which the MIC is 1.56 µg/mL (≈ 2.84 µM) in the series with Staphylococcus aureus [1], 25 µg/mL (≈ 45.6 µM) in the series with Escherichia coli, 1.56 µg/mL (≈ 2.84 µM) in the series with Staphylococcus aureus [4] and 1.56 µg/mL (≈ 2.84 µM) in the series on Staphylococcus aureus [3]. The compound further had a concentration for 50% haemolysis (HC50) at 1 h in series [2] of 56.5 µg/mL.

For the compound `CC(C)=CCOc1ccc(/C=C/C(=O)c2ccc(OCC=C(C)C)cc2OCC(=O)NCCCN)cc1`, the minimal inhibitory concentration (MIC) in the series with Staphylococcus aureus [1] was found to be 3.13 µg/mL (≈ 6.18 µM); in the series with Escherichia coli, 50 µg/mL (≈ 98.7 µM); with Staphylococcus aureus [4], 1.56 µg/mL (≈ 3.08 µM); with Staphylococcus aureus [3], 3.13 µg/mL (≈ 6.18 µM). The same compound registered an HC50 at 1 h in series [2] of 47 µg/mL.

For `CC(C)=CCOc1ccc(/C=C/C(=O)c2ccc(OCC=C(C)C)cc2OCC(=O)N[C@@H](CCCNC(=N)N)C(=O)NCCCN)cc1`, in the series on Escherichia coli, the minimum inhibitory concentration (MIC) is 6.25 µg/mL (≈ 9.43 µM). In series [2], this compound registered a 50% haemolytic concentration (HC50) at 1 h of 277 µg/mL.

Turning to `CC(C)=CCOc1ccc(/C=C/C(=O)c2ccc(OCC=C(C)C)cc2OCC(=O)NCCCN2CCN(C)CC2)cc1`, the MIC with Staphylococcus aureus [1] is 6.25 µg/mL (≈ 10.6 µM); in the series with Escherichia coli it was more than 100 µg/mL; in the series on Staphylococcus aureus [4] it was 6.25 µg/mL (≈ 10.6 µM); in the series on Staphylococcus aureus [3] it was 6.25 µg/mL (≈ 10.6 µM). The compound also came in with an HC50 at 1 h in series [2] of 36.5 µg/mL.

As for `CC(C)=CCOc1ccc(/C=C/C(=O)c2ccc(OCC=C(C)C)cc2OCC(=O)NCCCN(C)C)cc1`, the MIC with Staphylococcus aureus [1] is 12.5 µg/mL (≈ 23.4 µM); with Escherichia coli it was more than 50 µg/mL; with Staphylococcus aureus [4], 12.5 µg/mL (≈ 23.4 µM); in the series on Staphylococcus aureus [3], 12.5 µg/mL (≈ 23.4 µM). The 50% haemolytic concentration (HC50) at 1 h in series [2] is 78.2 µg/mL.

Turning to `CC(C)=CCOc1ccc(/C=C/C(=O)c2ccc(OCC=C(C)C)cc2OCC(=O)O)cc1` [SOFALCONE], the minimal inhibitory concentration (MIC) in the series with Staphylococcus aureus [1] was more than 50 µg/mL; with Escherichia coli, more than 50 µg/mL; with Staphylococcus aureus [4] it was 50 µg/mL (≈ 111 µM); with Staphylococcus aureus [3], more than 50 µg/mL. The compound also returned an HC50 at 1 h in series [2] of more than 200 µg/mL.

Take `CCCCN(CCCC)CCCNC(=O)COc1cc(OCC=C(C)C)ccc1C(=O)/C=C/c1ccc(OCC=C(C)C)cc1`: the MIC in the series with Staphylococcus aureus [1] is 6.25 µg/mL (≈ 10.1 µM); in the series with Escherichia coli, more than 50 µg/mL; with Staphylococcus aureus [4], 6.25 µg/mL (≈ 10.1 µM); with Staphylococcus aureus [3], 12.5 µg/mL (≈ 20.2 µM). In series [2], the concentration for 50% haemolysis (HC50) at 1 h was more than 200 µg/mL.

On to `COC(=O)[C@H](CCCNC(=N)N)NC(=O)[C@H](CCCNC(=N)N)NC(=O)COc1cc(OCC=C(C)C)ccc1C(=O)/C=C/c1ccc(OCC=C(C)C)cc1`, for which the MIC was 3.13 µg/mL (≈ 4.03 µM) with Staphylococcus aureus [1], 12.5 µg/mL (≈ 16.1 µM) in the series on Escherichia coli, 3.13 µg/mL (≈ 4.03 µM) in the series on Staphylococcus aureus [4] and 3.13 µg/mL (≈ 4.03 µM) in the series on Staphylococcus aureus [3]. In series [2], this compound returned a 50% haemolytic concentration (HC50) at 1 h of 120 µg/mL.

Consider `O=C(N[C@H](CO)[C@H](O)c1ccc([N+](=O)[O-])cc1)C(Cl)Cl` [CHLORAMPHENICOL], for which, in the series with Escherichia coli, the minimal inhibitory concentration (MIC) was 3.13 µg/mL (≈ 9.69 µM).

Turning to `CC(C)=CCOc1ccc(/C=C/C(=O)c2ccc(OCC=C(C)C)cc2OCC(=O)NCCCN2CCCC2)cc1`, the MIC in the series with Staphylococcus aureus [1] is 6.25 µg/mL (≈ 11.1 µM); with Escherichia coli, more than 50 µg/mL; with Staphylococcus aureus [4], 3.13 µg/mL (≈ 5.58 µM); with Staphylococcus aureus [3], 6.25 µg/mL (≈ 11.1 µM). For the same compound, the HC50 at 1 h in series [2] stood at 53.4 µg/mL.

Take `CCCNC(=O)COc1cc(OCC=C(C)C)ccc1C(=O)/C=C/c1ccc(OCC=C(C)C)cc1`: the MIC with Staphylococcus aureus [1] is more than 50 µg/mL; in the series on Escherichia coli it was more than 100 µg/mL; in the series with Staphylococcus aureus [4], more than 50 µg/mL; in the series on Staphylococcus aureus [3], more than 50 µg/mL. In series [2], this compound registered a concentration for 50% haemolysis (HC50) at 1 h of more than 200 µg/mL.

Consider `CC(C)=CCOc1ccc(/C=C/C(=O)c2ccc(OCC=C(C)C)cc2OCC(=O)N[C@@H](CCCNC(=N)N)C(=O)NCCCN(C)C)cc1`, for which the MIC in the series on Escherichia coli is 25 µg/mL (≈ 36.2 µM). The compound further displayed an HC50 at 1 h in series [2] of 181 µg/mL.

As to `COC(=O)[C@H](Cc1c[nH]cn1)NC(=O)COc1cc(OCC=C(C)C)ccc1C(=O)/C=C/c1ccc(OCC=C(C)C)cc1`, the MIC in the series with Escherichia coli and in the series on Staphylococcus aureus [3] was more than 50 µg/mL each time. Besides, the concentration for 50% haemolysis (HC50) at 1 h in series [2] is more than 200 µg/mL.

(Values after ChEMBL document CHEMBL4765377, “Design, synthesis, and evaluation of amphiphilic sofalcone derivatives as potent Gram-positive antibacterial agents” (Eur J Med Chem, 2020).)
